# Values joined by “and” are separate entries in the source; they are usually repeats but may differ in a detail not shown here. Equal entries are not always repeated. Where two headings read alike, the source gives them in different places.
# What was measured:
# [1] = tested on: Jurkat-DNR cells; experiment: Direct cytotoxicity (Toxic Dose 50) without chemotherapeutic
# Method: Cells (ABCB1, Jurkat-DNR or ABCG2 Ig-MXP3) are incubated with the test compound (3 order of magnitude concentration range) over a 3-day and 7-day period in the presence of the inhibitor and chemotherapeutic (ABCB1, DNR or ABCG2 MTX), such that a cell concentration of at least 1×10^5 cells/mL is maintained. Cell viability is determined by trypan blue staining and enumeration under light microscopy. […] A chemoreversal index (Chemoreversal 50, CR50) is determined from the viability assessment. Using a similar approach, a direct cytotoxicity index (Toxic Dose 50, TD50) is determined by assessment of cell death of cells grown in media alone.
# Cells (ABCB1, Jurkat-DNR or ABCG2 Ig-MXP3) were incubated with the test compound in a 3 order of magnitude concentration range over three and seven day periods in the presence of the inhibitor and chemotherapeutic (ABCB1, 100 nM DNR or ABCG2 30 nM MTX), such that a cell concentration of at least 1×10^5 cells mL^−1 was maintained. Cell viability was determined by trypan blue staining and enumeration under light microscopy. […] A chemoreversal index (Chemoreversal 50, CR50) was determined from the viability assessment. Using a similar approach, a direct cytotoxicity index (Toxic Dose 50, TD50) was determined by assessment of cell death of cells grown in media alone.
# [2] = tested on: Ig-MXP3 cells; experiment: as above; type: cell-based
# [3] = target: ABCB1 (Homo sapiens, UniProt P08183); experiment: JC-1 efflux inhibition dose response, flow cytometry, Jurkat-DNR cells; settings: for IC50: Jurkat-DNR cells over-expressing ABCB1, averages of two to four replicates
# Method: (§1) The HyperCyt® high throughput flow cytometry platform (IntelliCyt™, Albuquerque, N. Mex.) was used to sequentially sample cells from 384-well microplates (2 μL/sample) for flow cytometer presentation at a rate of 40 samples per minute.^62-63 Flow cytometric analysis was performed on a CyAn™ flow cytometer (Beckman-Coulter, Fullerton, Calif.). The resulting time-gated data files were analyzed with HyperView® software to determine compound activity in each well. Inhibition response curves were fitted by Prism® software (GraphPad Software, Inc., San Diego, Calif.) using nonlinear least-squares regression in a sigmoidal dose response model with variable slope, also known as the four-parameter logistic equation. This type of time-gated flow cytometric data analysis was described in detail for a previous ABC transporter screen from our group.^56
# The assay provider's ABCB1 over-expressing Jurkat-DNR cell line is used for confirmatory follow up instead of the CCRF-Adr cells. Each cell line (Jurkat-DNR and Ig-MXP3) is run separately against all compounds (no differential cell staining) in dose response. The assay is conducted in 384-well format in a total volume of 15.1 μL. Cells and reagents are added sequentially as follows: 1) PBS buffer (5 μL/well); 2) test compound (100 nL/well); 3) drug-resistant cells (10 μL/well) pre-stained with the JC-1 substrate at 1 μM. Final in-well concentrations of test compound range from 50 μM to 69 nM over an 18 point dose response and the cell concentration is 1×10^6 cells/mL. Nicardipine (50 μM) is added to each plate as a pan-inhibition positive control. The plate is rotated end-over-end at 4 RPM and 25° C. for 30 minutes and then cell samples are analyzed and flow cytometric data of light scatter and fluorescence emission at 530+/−20 nm (488 nm excitation, FL1) are collected.
# (§2) Each cell line (Jurkat-DNR and Ig-MXP3) was run separately against all compounds (no differential cell staining) in dose-response. The protocol differed from the single point screen as describe here. Cells and reagents were added sequentially as follows: 1) PBS buffer (5 μL per well); 2) test compound (100 nL per well); 3) drug-resistant cells (10 μL, per well) pre-exposed to the JC-1 substrate at 1 μM just prior to the well addition. Final in-well concentrations of test compound ranged from 50 μM to 69 nM over an 18 point dose-response and the cell concentration was 1×10^6 cells mL^−1.
# [4] = target: T1, ABCB1 / ABCG2 (Homo sapiens, UniProt Q9UNQ0); experiment: JC-1 efflux inhibition dose response, flow cytometry, Ig-MXP3 cells; settings: human, probe JC-1 (1 µM), ~Fold G2 Selective (B1/G2), quotient of average ABCB1 IC50 and average ABCG2 IC50, efflux assay
# T1 sequence (Q9UNQ0 1-655): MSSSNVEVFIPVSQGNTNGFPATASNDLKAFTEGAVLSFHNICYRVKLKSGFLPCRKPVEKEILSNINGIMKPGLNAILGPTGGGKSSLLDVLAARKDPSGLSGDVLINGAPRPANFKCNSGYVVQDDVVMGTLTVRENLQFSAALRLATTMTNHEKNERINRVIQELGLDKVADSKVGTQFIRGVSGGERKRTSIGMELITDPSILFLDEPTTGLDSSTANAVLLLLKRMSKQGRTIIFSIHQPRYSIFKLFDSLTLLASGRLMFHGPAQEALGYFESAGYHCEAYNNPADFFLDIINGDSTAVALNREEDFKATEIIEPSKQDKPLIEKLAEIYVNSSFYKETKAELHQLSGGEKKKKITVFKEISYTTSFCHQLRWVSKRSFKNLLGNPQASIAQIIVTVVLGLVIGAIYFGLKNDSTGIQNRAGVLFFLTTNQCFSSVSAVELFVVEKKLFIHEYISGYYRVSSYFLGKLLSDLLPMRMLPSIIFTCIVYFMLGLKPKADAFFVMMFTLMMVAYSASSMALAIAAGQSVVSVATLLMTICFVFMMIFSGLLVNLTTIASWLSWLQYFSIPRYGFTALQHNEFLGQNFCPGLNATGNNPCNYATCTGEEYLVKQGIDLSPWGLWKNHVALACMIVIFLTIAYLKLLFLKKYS
# Method: as §1
# (§3) The assay provider's ABCB1 over-expressing Jurkat-DNR cell line is used for confirmatory follow up instead of the CCRF-Adr cells. Each cell line (Jurkat-DNR and Ig-MXP3) is run separately against all compounds (no differential cell staining) in dose response. The assay is conducted in 384-well format in a total volume of 15.1 μL. Cells and reagents are added sequentially as follows: 1) PBS buffer (5 μL/well); 2) test compound (100 nL/well); 3) drug-resistant cells (10 μL/well) pre-stained with the JC-1 substrate at 1 μM. […] Nicardipine (50 μM) is added to each plate as a pan-inhibition positive control.
# as §2, with “addition.” for “addition. Final in-well concentrations of test compound ranged from 50 μM to 69 nM over an 18 point dose-response and the cell concentration was 1×10^6 cells mL^−1.”
# [5] = target: T2, ABCG2 (Homo sapiens, UniProt Q9UNQ0); experiment: as above; settings: for ~Fold G2 Selective (B1/G2): quotient of average ABCB1 IC50 and average ABCG2 IC50, efflux assay
# T2 sequence (Q9UNQ0 1-655): T1 sequence (Q9UNQ0 1-655)
# Method: as §1, §3
# as §2, with “addition.” for “addition. Final in-well concentrations of test compound ranged from 50 μM to 69 nM over an 18 point dose-response and the cell concentration was 1×10^6 cells mL^−1.”
# [6] = tested on: ABCG2 over-expressing Ig-MXP3 cells; experiment: Chemoreversal assay: potentiation of mitoxantrone (MTX) killing; type: cell-based; settings: Ig-MXP3 cells
# [7] = tested on: ABCB1 over-expressing Jurkat-DNR cells; experiment: Chemoreversal assay: potentiation of daunorubicin (DNR) killing; type: cell-based
# [8] = Jurkat-DNR cells, inhibitor without chemotherapeutic
# [9] = Ig-MXP3 cells, inhibitor without chemotherapeutic
# [10] = IC50 ABCB1 (efflux inhibition of JC-1 substrate)
# [11] = constant 30 nM MTX, varied inhibitor dose, read-out: CR50 ABCG2
# [12] = read-out: IC50 ABCB1 (efflux inhibition of JC-1 substrate)
# [13] = read-out: IC50 ABCG2 (efflux inhibition of JC-1 substrate), Ig-MXP3 cells over-expressing ABCG2, averages of two to four replicates
# [14] = constant 100 nM DNR, varied inhibitor dose, read-out: CR50 ABCB1
# Sequence of ABCB1 (P08183 whole entry): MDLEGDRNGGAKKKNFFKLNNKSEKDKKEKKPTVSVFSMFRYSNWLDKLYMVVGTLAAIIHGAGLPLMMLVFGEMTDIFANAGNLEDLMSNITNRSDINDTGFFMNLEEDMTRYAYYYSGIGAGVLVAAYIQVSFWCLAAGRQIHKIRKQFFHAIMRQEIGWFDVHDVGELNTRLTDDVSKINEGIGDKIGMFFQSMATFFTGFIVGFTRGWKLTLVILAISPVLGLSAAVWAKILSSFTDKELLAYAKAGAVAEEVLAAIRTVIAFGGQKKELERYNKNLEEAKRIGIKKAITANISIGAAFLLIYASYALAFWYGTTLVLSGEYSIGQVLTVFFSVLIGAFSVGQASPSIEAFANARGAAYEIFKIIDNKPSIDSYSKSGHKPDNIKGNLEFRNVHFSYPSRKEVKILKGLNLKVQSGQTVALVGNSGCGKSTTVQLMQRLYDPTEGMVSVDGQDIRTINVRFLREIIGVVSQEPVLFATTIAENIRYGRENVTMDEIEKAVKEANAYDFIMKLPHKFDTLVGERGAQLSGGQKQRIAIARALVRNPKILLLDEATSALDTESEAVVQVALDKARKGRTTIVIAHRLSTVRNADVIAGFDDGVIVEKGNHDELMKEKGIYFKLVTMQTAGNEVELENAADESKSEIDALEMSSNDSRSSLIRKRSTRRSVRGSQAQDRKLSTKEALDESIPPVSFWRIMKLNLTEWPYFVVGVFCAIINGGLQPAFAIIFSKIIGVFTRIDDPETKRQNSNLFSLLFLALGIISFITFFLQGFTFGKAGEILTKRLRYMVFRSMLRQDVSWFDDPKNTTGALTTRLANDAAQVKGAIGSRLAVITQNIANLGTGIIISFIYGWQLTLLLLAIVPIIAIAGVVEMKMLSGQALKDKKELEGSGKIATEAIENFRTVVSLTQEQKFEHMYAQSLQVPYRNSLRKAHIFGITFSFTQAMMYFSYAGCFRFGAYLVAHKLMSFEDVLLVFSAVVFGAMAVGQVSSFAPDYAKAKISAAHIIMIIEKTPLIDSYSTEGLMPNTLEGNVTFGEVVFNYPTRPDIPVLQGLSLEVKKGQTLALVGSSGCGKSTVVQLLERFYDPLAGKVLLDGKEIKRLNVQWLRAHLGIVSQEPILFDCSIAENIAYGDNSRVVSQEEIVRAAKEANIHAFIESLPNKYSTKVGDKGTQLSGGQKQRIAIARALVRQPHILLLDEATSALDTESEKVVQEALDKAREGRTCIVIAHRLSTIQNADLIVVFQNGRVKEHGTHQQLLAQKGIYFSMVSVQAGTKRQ
structure (smiles),measurement,setting,value
"COc1ccc2c3c([nH]c2c1)[C@H](CC(C)C)N1C(=O)[C@H](CCC(=O)OC(C)(C)C)NC(=O)[C@@H]1C3 [Compound 4, reference compound]",TD50 ABCB1,[1]; [8],2.84 µM
same,TD50 ABCG2,[2]; [9],20.00 µM
Cc1nc2cc(-c3cccc(Cl)c3)nn2c(N2CCN(C(=O)c3ccco3)CC2)c1C [Compound 9],IC50,[3]; [10],8400 ± 700 nM
same,selectivity ratio at 30 min,[4],3.2
same,IC50,[5],2650 ± 1070 nM
same,EC50,[6]; [11],170 nM
same,TD50 ABCB1,[1]; [8],>100 µM
same,TD50 ABCG2,[2]; [9],47.40 µM
O=C(c1ccco1)N1CCN(c2cc(-c3ccccc3)nc3cc(-c4cccc(Cl)c4)nn23)CC1 [Compound 8],IC50,[3]; [12],6180 nM
same,~Fold G2 Selective (B1/G2),[5],6.4 fold
same,IC50,[5]; [13],960 nM
same,EC50,"[7]; constant 100 nM DNR, varied inhibitor dose, listed as SID 85240370, read-out: CR50 ABCB1",700 nM
same,EC50,[7]; [14],250 nM
same,EC50,[6]; [11],140 nM
"CN(C)C(=O)CCSC(SCCC(=O)O)c1cccc(/C=C/c2ccc3ccc(Cl)cc3n2)c1 (centres unmarked) [Compound 5, reference compound]",IC50,[3]; [10],> 50000 nM
same,efflux inhibition activity ABCB1,"[3]; JC-1 efflux, Jurkat-DNR",didn't observe any inhibition
same,IC50,[3]; [12],> 50000 nM
same,IC50,[5],> 50000 nM
same,efflux inhibition activity ABCG2,"[5]; JC-1 efflux, Ig-MXP3",didn't observe any inhibition
same,EC50,[7]; [14],20400 nM
same,EC50,[6]; [11],57400 nM
same,TD50 ABCB1,[1]; [8],20.40 µM
same,TD50 ABCG2,[2]; [9],57.40 µM
Cc1ccc(-c2cc3nc(-c4ccco4)cc(N4CCN(C(=O)c5ccoc5)CC4)n3n2)cc1 [Compound 59],IC50,[3]; [10],11300 nM
same,selectivity ratio at 30 min,[4],2.2
same,IC50,[5],5190 ± 4220 nM
O=C(c1ccco1)N1CCN(c2cc(-c3ccccc3)nc3cc(-c4ccc(Cl)cc4)nn23)CC1 [Compound 39],IC50,[3]; [10],3640 ± 1470 nM
same,selectivity ratio at 30 min,[4],2.7
same,IC50,[5],1370 ± 530 nM
c1ccc(CN2CCN(c3cc(-c4ccco4)nc4cc(-c5ccccc5)nn34)CC2)cc1 [Compound 75],IC50,[3]; [10],8990 ± 3670 nM
same,selectivity ratio at 30 min,[4],2.9
same,IC50,[5],3070 ± 1880 nM
O=C(c1ccoc1)N1CCN(c2cc(-c3ccco3)nc3cc(-c4ccc(Cl)cc4)nn23)CC1 [Compound 54],IC50,[3]; [10],41500 nM
same,selectivity ratio at 30 min,[4],22
same,IC50,[5],1890 ± 1180 nM
"COc1cc2c(cc1OC)CN(CCc1ccc(NC(=O)c3cccc(/C=c4\[nH]c(=O)/c(=C/c5ccccc5)n(C)c4=O)c3)cc1)CC2 [Compound 2, reference compound]",IC50,[3]; [12],610 ± 430 nM
same,IC50,"[3]; read-out: IC50 ABCB1 (efflux inhibition of JC-1 substrate), listed as XR9051",600 nM
same,IC50,[5]; [13],2270 ± 2050 nM
same,IC50,"[5]; read-out: IC50 ABCG2 (efflux inhibition of JC-1 substrate), Ig-MXP3 cells over-expressing ABCG2, averages of two to four replicates, listed as XR9051",2300 nM
same,EC50,"[7]; values in nM, read-out: chemoreversal (CR50) ABCB1",10 nM
same,EC50,"[6]; values in nM, listed as XR9051, read-out: chemoreversal (CR50) ABCG2",700 nM
same,EC50,"[6]; values in nM, read-out: chemoreversal (CR50) ABCG2",650 nM
same,TD50 ABCB1,[1],1.97 µM
same,TD50 ABCG2,[2],21.40 µM
"O=C(NCCCN1CCOCC1)c1cnn2c(-c3ccccc3)cc(-c3ccccc3)nc12 [Compound 6, reference compound]",IC50,"[3]; read-out: IC50 ABCB1 (efflux inhibition of JC-1 substrate), listed as reversan",4400 nM and 4410 nM
same,IC50,"[5]; read-out: IC50 ABCG2 (efflux inhibition of JC-1 substrate), Ig-MXP3 cells over-expressing ABCG2, averages of two to four replicates, listed as reversan",800 nM and 840 nM
same,EC50,"[7]; constant 100 nM DNR, varied inhibitor dose, listed as reversan, read-out: CR50 ABCB1",2200 nM
same,EC50,[7]; [14],220 nM
same,EC50,"[6]; constant 30 nM MTX, varied inhibitor dose, listed as reversan, read-out: CR50 ABCG2",3600 nM
same,EC50,[6]; [11],3610 nM
same,TD50 ABCB1,[1],7.04 µM
same,TD50 ABCG2,[2],>100 µM
COc1cccc(-c2cc3nc(-c4ccccc4)cc(N4CCN(C(=O)c5ccco5)CC4)n3n2)c1 [Compound 38],IC50,[3]; [10],4770 ± 630 nM
same,selectivity ratio at 30 min,[4],3.4
same,IC50,[5],1400 ± 320 nM
O=C(c1ccccc1)N1CCN(c2cc(-c3ccco3)nc3cc(-c4ccccc4)nn23)CC1 [Compound 69],IC50,[3]; [10],5560 ± 1250 nM
same,selectivity ratio at 30 min,[4],3.4
same,IC50,[5],1620 ± 1270 nM
Cc1ccc(-c2cc(N3CCN(C(=O)c4ccoc4)CC3)n3nc(-c4ccccc4)cc3n2)o1 [Compound 66],IC50,[3]; [10],680 nM
same,selectivity ratio at 30 min,[4],0.8
same,IC50,[5],840 ± 870 nM
CC(=O)N1CCN(c2cc(-c3ccccc3)nc3cc(-c4cccc(Cl)c4)nn23)CC1 [Compound 23],IC50,[3]; [10],5670 ± 2210 nM
same,selectivity ratio at 30 min,[4],0.9
same,IC50,[5],6070 ± 730 nM
O=C(c1ccoc1)N1CCN(c2cc(-c3ccccc3)nc3cc(-c4cccc(Cl)c4)nn23)CC1 [Compound 11],IC50,[3]; [10],8580 ± 630 nM
same,selectivity ratio at 30 min,[4],7
same,IC50,[5],1190 ± 260 nM
same,~Fold G2 Selective (B1/G2),[5],7.2 fold
Cc1cccc(-c2cc3nc(-c4ccccc4)cc(N4CCN(C(=O)c5ccco5)CC4)n3n2)c1 [Compound 40],IC50,[3]; [10],3880 ± 1670 nM
same,selectivity ratio at 30 min,[4],1.6
same,IC50,[5],2460 ± 1090 nM

# — patent US9056111B1, “Selective efflux inhibitors and related pharmaceutical compositions and methods of treatment” (STC.UNM, priority 2011, dated 2015)
